This assay can be described thus: Antagonist activity at human alpha-7 nicotinic acetylcholine receptor expressed in rat GH3 cells assessed as inhibition of epibatidine-induced Ca2+ influx preincubated for 5 mins followed by epibatidine induction measured for 3 mins by fluorescence assay.

Broadly, the IC50 is the midpoint of a concentration-inhibition curve. On to `COc1ccc(CC2C[N+]3(C)CCC2CC3)cc1` (stereo unspecified), for which the IC50 amounted to 12.3 µM.
